{"source": "patent US20120329860A1", "about": "“Uses of Beta-Nicotinamide Adenine Dinucleotide” (MEDICAL COLLEGE OF GEORGIA INSTITUTE, INC, priority 2010, published 2012)", "key": {"[1]": {"system": "myosin light chain (MLC) phosphorylation", "assay": "MLC phosphorylation immunoblot in LPS-treated HPAEC", "format": "cell-based, human", "conditions": "LPS/β-NAD mixture, 4 hrs", "protocol": "(§1) Protein extracts were separated by SDS-PAGE, transferred to nitrocellulose membrane and probed with specific antibodies. Horseradish peroxidase-conjugated goat anti-rabbit IgG antibody (Santa Cruz Biotechnology, Santa Cruz, Calif.) was used as the secondary antibody, and immunoreactive proteins were detected using enhanced chemiluminescence detection kit (ECL) according to the manufacturer's protocol (Amersham, Little Chalfont, UK). For quantification, immunoblot data were analyzed using NIH Image 1.63 software. Active Rac1 was determined using G-LISA Rac activation assay according to the manufacturer's recommendations (Cytoskeleton Inc., Denver, Colo.)."}, "HPAEC monolayers": {"system": "HPAEC monolayers", "assay": "Transendothelial electrical resistance (TER) by ECIS in HPAEC monolayers", "format": "cell-based, human", "protocol": "Human pulmonary artery endothial cells (HPAEC) and EBM-2 complete medium were purchased from Lonza (Allendale, N.J.). HPAEC were cultured according to the manufacturer's protocol and utilized at early (3-6) passages.\nThe barrier properties of endothelial cells monolayers were characterized using a highly sensitive electrical cell-substrate impedance sensing (ECIS) instrument to measure transendothelial electrical resistance (TER) as described (Birukova et al., 2004a. Microvasc Res 67(1):64-77; Kolosova et al., 2005, Circ Res 97(2):115-124). The TER data was normalized to the initial voltage."}, "Rac1": {"system": "Rac1", "assay": "G-LISA Rac activation assay in HPAEC", "format": "cell-based, human", "conditions": "50 mM β-NAD, time course; basal by 30 min", "protocol": "as §1"}, "LPS-induced ALI in mice": {"system": "LPS-induced ALI in mice", "assay": "BAL total protein in LPS-induced lung injury", "format": "in vivo", "conditions": "β-NAD (i.v.) simultaneously with LPS (i.t.), 18 hr", "protocol": "Female C57BL/6J mice (8-10 weeks old) weighing 20-25 g were purchased from Charles River Laboratory (Wilmington, Mass.). Animals were housed in plastic cages and had access to food and water. The animals were kept at room temperature and exposed to continuous cycles of 12 hr light and darkness.\nMice were anesthetized with ketamine (150 mg/kg) and acetylpromazine (15 mg/kg) intraperitoneally (i.p.) before the exposure of the trachea via neck incision and intubation with 20-guage catheter and the right internal jugular vein was exposed via right chest incision for PBS or b-NAD installation. The mice were randomly divided into groups. […] Simultaneously, mice received either b-NAD (5.4 mg/kg, equivalent to final calculated plasma concentration […] or PBS in the control group intravenously (i.v.) through the internal jugular vein (IJ). The animals were allowed to recover for 18 hr. EBD was given through the IJ 2 hr prior to termination of the experiment. At termination, bronchoalveolar lavage (BAL) was collected. BAL was 1ml of 10% HBSS through the endotracheal catheter immediately on sacrifice with aspiration. BAL was immediately centrifuged and processed. After the BAL, ethylenediaminetetraacetic acid (EDTA) was used to flush the lungs of blood via the right heart ventricle and the lungs were then harvested. […]"}, "Myeloperoxidase (MPO)": {"system": "Myeloperoxidase (MPO)", "assay": "Myeloperoxidase (MPO) activity and staining in lungs", "format": "in vivo, mice", "protocol": "MPO is a hemoprotein that is abundantly expressed in polymorphonuclear leukocytes (neutrophils) and secreted during their activation. MPO assay was carried out according to the manufacturer's assay protocol (Cayman Chemicals). Lungs of vehicle, LPS or LPS/b-NAD treated mice were used for the MPO assay. Lungs (free of blood) were weighed and snap frozen in liquid nitrogen. The left lung was weighed and homogenized in the lysis buffer and then centrifuged (12,000×g, 30 min). The protein from the clear supernatant was estimated and normalized from different treatment and analyzed for the MPO levels by ELISA. Values represent mean±SEM (n=3)."}, "[2]": {"system": "pro-inflammatory/anti-inflammatory cytokines gene expression", "assay": "qPCR of cytokine gene expression in lungs", "format": "in vivo", "conditions": "LPS/β-NAD vs LPS only mice", "protocol": "Total RNA was prepared from the lung of mouse tissue using RNeasy mini kit (Qiagen, Valencia, Calif.). The mRNA was reverse-transcribed into complementary deoxyribonucleic acid (cDNA) using iScript reagents from Bio-Rad on a programmable thermal cycler (PCR-Sprint, Thermo Electron, Milford, Mass.). 50 ng of cDNA was amplified in each real-time polymerase chain reaction using ABgene reagents (distributed by Fisher Scientific), Bio-Rad myiQ Cycler and Custom-designed primers for genes specific to the mice (Integrated DNA Technologies, Coralville, Iowa). The Reverse transcription reaction was carried out for 25 min at 42° C. and terminated for 5 min at 85° C. Real time PCR was performed by denaturation for 30 sec at 94° C., annealing for 30 sec at 60° C. for a total of 40 cycles. The glyceraldehyde-3-phosphate dehydrogenase (GAPDH) was used to normalize the expression of the target genes."}, "[3]": {"system": "LPS-induced mortality in mice", "assay": "LPS-induced mortality / survival", "format": "in vivo", "protocol": "Mice were injected with β-NAD (100 mg/kg, i.p) or vehicle (saline, i.p) 10 min after LPS (20 mg/kg, i.p) challenge. As a treatment strategy, β-NAD was given twice a day (i.p) for 4 days. […]"}, "[4]": {"system": "VE-cadherin-positive cell-cell junctions in HPAEC", "assay": "VE-cadherin immunofluorescence of HPAEC monolayers", "format": "cell-based, human", "conditions": "50 μM b-NAD, 30 minutes", "protocol": "Immunostaining was performed as described (Kolosova et al., 2005, Circ Res 97(2):115-124). The DNA-binding, fluorescent dye 7-amino-actinomycin D (7AAD) was used to stain cell nuclei. The percentage of total cell surface area occupied by VE-cadherin-positive cell-cell junctions was quantitatively determined using Zeiss Microscope quantification Software."}}, "note": "Entries after “also recorded” stand apart in the source; their conditions may differ."}
{"compound": "NC(=O)C1=CN([C@@H]2O[C@H](COP(=O)(O)OP(=O)(O)OC[C@H]3O[C@@H](n4cnc5c(N)ncnc54)[C@H](O)[C@@H]3O)[C@@H](O)[C@H]2O)C=CC1", "note": "[β-NAD, beta-nicotinamide adenine dinucleotide]", "values": [{"measurement": "LPS-stimulated MLC phosphorylation", "setting": "[1]", "value": "significantly inhibited"}, {"measurement": "thrombin-induced endothelial cell permeability (TER)", "setting": "HPAEC monolayers; 100 nM thrombin in mixture with 50 mM b-NAD", "value": "significantly attenuated the thrombin-induced endothelial cell permeability"}, {"measurement": "decrease in TER from base line", "setting": "HPAEC monolayers; LPS (100 ng/ml) with β-NAD added", "value": "~30", "unit": "%"}, {"measurement": "PLY-induced loss of monolayer integrity (TER)", "setting": "HPAEC monolayers; PLY in a mixture with 50 mM β-NAD", "value": "failed to produce such drastic effect"}, {"measurement": "TER of HPAEC monolayers (endothelial barrier function)", "setting": "HPAEC monolayers; b-NAD alone, quiescent HPAEC, 10-100 mM as printed", "value": "positive effect; also recorded: significant initial increase in TER"}, {"measurement": "β-NAD effect on TER after cytochalasin B", "setting": "HPAEC monolayers; cytochalasin B pretreatment 30 min, then 50 μM β-NAD", "value": "did not increase the TER"}, {"measurement": "β-NAD effect on TER after nocodazole", "setting": "HPAEC monolayers; nocodazole pretreatment 30 min, then 50 μM β-NAD", "value": "restored endothelial cell barrier integrity"}, {"measurement": "Rac1 activation", "setting": "Rac1", "value": "dramatic β-NAD-dependent activation of Rac1 at early time points"}, {"measurement": "LPS-induced BAL protein accumulation", "setting": "LPS-induced ALI in mice", "value": "significantly attenuated"}, {"measurement": "MPO staining of lung sections (neutrophil infiltration)", "setting": "Myeloperoxidase (MPO); LPS with β-NAD treatment", "value": "attenuated the LPS-induced myeloperoxidase"}, {"measurement": "MPO activity in lungs", "setting": "Myeloperoxidase (MPO); LPS/b-NAD vs LPS challenged mice", "value": "attenuated MPO activity"}, {"measurement": "MPO activity in lungs, β-NAD alone", "setting": "Myeloperoxidase (MPO); β-NAD alone, no LPS", "value": "no effect"}, {"measurement": "anti-inflammatory cytokines (IL-4, IL-10, and IL-13) gene expression in lungs", "setting": "[2]", "value": "elevated"}, {"measurement": "proinflammatory cytokines (IL-1α, IL-1β, IFN-γ and TNF-α) gene expression in lungs", "setting": "[2]", "value": "substantially or markedly downregulated"}, {"measurement": "mortality, LPS vs. LPS/β-NAD", "setting": "[3]; 15 day study", "value": "significantly reduced morality"}, {"measurement": "survival after LPS challenge", "setting": "[3]; LPS 20 mg/kg i.p., β-NAD 100 mg/kg i.p. twice a day, 4 days", "value": "recovered and lived longer"}, {"measurement": "survival, β-NAD alone", "setting": "[3]; β-NAD alone, no LPS", "value": "no effect"}, {"measurement": "VE-cadherin recruitment to cell-cell junctions", "setting": "[4]", "value": "Appreciably more VE-cadherin was recruited to the area of cell-cell junctions"}, {"measurement": "percentage of total cell-surface area occupied by VE-cadherin-positive cell-cell junctions (mean)", "setting": "[4]; 20 cells per group, control 17.42%", "value": 61.03, "unit": "%"}]}
